Data reported in US5439930A, “Biologically active n-acylprolydipeptides having antiamnestic, antihypoxic and anorexigenic effects” (Russian-American Institute for New Drug Development, priority 1992, dated 1995).
Where a SMILES comes first, the peptide text is derived from it. The star is where a group is joined. PhAc = O=C(Cc1ccccc1)*

Legend:
[1] = tested on: memory decline evoked by maximal electroshock (MES) in randomly bred male albino rats; test: Passive avoidance step-through, amnesia by maximal electroshock (MES); type: in vivo
Experimental: (§1) Compounds according to the present invention, including the compounds described in Examples 1-11, were checked for their ability to prevent memory decline evoked by maximal electroshock (MES) or scopolamine in the passive avoidance step-through paradigm (equipment of Laffaette Co., USA). The experiments described herein (Examples 12, 13, 15, and 19) were carried out using randomly bred male albino rats of a weight of approximately 180-220 g. […] Amnesia was produced by transcorneal maximal electroshock immediately after learning or scopolamine (1 mg/kg, subcutaneously) administration 30 min. before learning. The retention was tested 24 hours later by the measurement of latency of the entering of the dark compartment.
(§2) The degree of antiamnestic activity was estimated according to Buttler's modified formula: [formula]
(§3) The higher the magnitude of this indicator the more is the antiamnestic activity.

[2] = tested on: memory decline evoked by scopolamine in randomly bred male albino rats; test: Passive avoidance step-through, amnesia by scopolamine; type: in vivo; details: 0.1 mg/kg 15 min before learning
Experimental: as §1, §2, §3

outbred albino male mice = test: Acute habituation of locomotor activity (Optovarimex); type: in vivo
Experimental: The effect of Compound I on acute habituation of locomotor activity was estimated according to diminution of locomotions during 30 minutes. Experiments were performed on outbred albino male mice (18-22 g) placed in groups of 10 animals in registration cage (Optovarimex, Colomb., USA).

[3] = tested on: rat's offspring damaged by prenatal alcoholization; test: Active avoidance learning of offspring after prenatal alcoholization; type: in vivo, rats
Experimental: The cognitive impairment in the rat's offspring was provoked by prenatal alcoholization or prenatal hypoxia. Prenatal alcoholization was achieved by peroral administration of 5 g/kg/day (25% solution) ethanol to pregnant female rats during whole pregnancy. To achieve prenatal hypoxia the rats on the 15th day of pregnancy were placed into hypobaric barometric chamber (the "elevating" up 8500 m altitude; exposition for 2 hours).
The treatment of the offspring was performed from 8th day to 20th day. Compound I was administered in the dose of 0.1 mg/kg/day subcutaneously. The testing was performed on two-month old rats.
It has been established that both kinds of damage (alcoholization, hypoxia) caused learning disorders in active avoidance test. Early postnatal administration of Compound I restored learning activity (Table 9).

outbred albino mice = test: Hypobaric hypoxia survival (barometric chamber, 11,000 m); type: in vivo; details: 0.5 mg/kg 15 minutes before hypoxia, 1 hour exposition
Experimental: The protective effect of Compound I in hypoxia was assessed using the barometric chamber by "elevating" of the outbred albino mice (18-22 g) to the altitude of 11,000 m at a speed of 1000 m/min. After 1 hour exposition the percentage of surviving mice after 0.9% saline pretreatment was 15%.

[4] = Body weight and food consumption; type: in vivo, rats
Experimental: The influence of Compound I on body weight and food consumption was studied in the experiments on the outbred rats. The substance, administered during 3 weeks in dose of 0.1 mg/kg/day intraperitoneally slowed the dynamics of weight increase in comparison to control: the increase of the weight (in %% to the initial one) was 12% in the treated group and 24% in the control group.
The amount of the consumed chow checked between 19th and 21st days was less for treated animals (39.5 g/day/rat) than for control ones (68.6 g/day/rat).

[5] = tested on: phenazepam withdrawn male albino rats; test: Conflict situation test during phenazepam withdrawal; type: in vivo; details: 0.5 mg/kg i.p. 15 minutes prior to testing; 24 hours after phenazepam withdrawal
Experimental: (§4) The influence of Compound I on withdrawal syndrome caused by the interruption of chronic administration of benzodiazepine tranquilizer phenazepam (T. A. Voronina et al., In Fenazepam; A. V. Bogatsky, Ed.; Naukova dumka Publishers: Kiev, 1982; pp. 67-169) was studied in experiments on male albino rats weighing 190-200 g at the beginning and 300-350 g at the end of the experiment.
(§5) Phenazepam (2 mg/kg intraperitoneally) or saline (control group of rats) were given once daily for 57 days. The withdrawal syndrome occurred 24-72 hours after the last injection. The withdrawal syndrome in rats consisted in "anxiogenic-like" state aggressiveness and accelerated development of kindled seizures caused by pentylentetrazol. Compound I was administered to the withdrawn rats in doses of 0.5 mg/kg intraperitoneally 15 minutes prior to testing.
The conflict situation test was used to reveal the "anxiety" of rats (J. R. Vogel et al., Psychopharmacologia, 21, 1-7 (1971)). This experiment involved previous training of water deprivated rats to drink water from a trough. Next day electrical stimulation was given by a 0.5 mA electric current through the trough. A conflict situation was created by clashing of the two different reflexes (drinking and self-defense).
This behavior in the conflict situation test can be considered as "anxiogenic-like" one. […]

[6] = tested on: phenazepam withdrawn male albino rats; test: Threshold of aggressive behavior during phenazepam withdrawal; type: in vivo; details: 0.5 mg/kg i.p.; 24 hours after the last administration of phenazepam
Experimental: as §4, §5
The threshold of the aggressive behavior was determined in the experiment on the rats (R. Tedeshi et al., J. Pharmacol. Exp. Ther., 125, 28-34 (1959)). The paired rats were placed on the electrified floor; the strength of the current, which provokes the fighting, was registered.

Compound: CCOC(=O)CNC(=O)[C@@H]1CCCN1C(=O)Cc1ccccc1 [Compound I, N-phenacetyl-L-prolylglycine ethyl ester] (PhAc-Pro-Gly-OEt)
- Latency (sec.) Amnesia + subst. ([1]; 0.1 mg/kg i.p. 15 min before training, MES after learning, retention 24 h later): 25 s
- AA % (antiamnestic activity, Butler's modified formula) ([1]; 0.1 mg/kg i.p. 15 min before training, MES amnesia): 36%
- Antiamnestic activity (Aa) ([1]; 0.1 mg/kg per os, MES amnesia): 19%
- Antiamnestic activity (Aa) ([1]; 0.3 mg/kg per os, MES amnesia): 19%
- Antiamnestic activity (Aa) ([1]; 0.4 mg/kg per os, MES amnesia): 23%
- Antiamnestic activity (Aa) ([1]; 0.5 mg/kg per os, MES amnesia): 43%
- Antiamnestic activity (Aa) ([1]; 0.7 mg/kg per os, MES amnesia): 52%
- Antiamnestic activity (Aa) ([1]; 0.9 mg/kg per os, MES amnesia): 36%
- Antiamnestic activity (Aa) ([1]; 1.0 mg/kg per os, MES amnesia): 10%
- Antiamnestic activity (Aa) ([1]; 1.2 mg/kg per os, MES amnesia): 16%
- Antiamnestic activity (Aa) ([1]; 1.5 mg/kg per os, MES amnesia): 10%
- Aa (antiamnestic activity) ([2]; scopolamine 1 mg/kg s.c.): 55.5
- Latency (sec.) Scopolamine + substance ([2]; scopolamine 1 mg/kg s.c. 30 min before trial): 64.1 s
- Habituation index (motor activity last 5 min / first 5 min of recording) (outbred albino male mice; 0.05 mg/kg, 15 min before registration): 30%
- Habituation index (outbred albino male mice; 0.1 mg/kg): 10%
- Habituation index (outbred albino male mice; 0.5 mg/kg): 15%
- Habituation index (outbred albino male mice; 2.5 mg/kg): 25%
- Habituation index (outbred albino male mice; 5.0 mg/kg): 27%
- Initial locomotor activity (outbred albino male mice; dose range 0.05-5.0 mg/kg): without changing of initial locomotor activity
- Rats with reflex of active avoidance ([3]; day 1 of learning, 0.1 mg/kg/day s.c. from 8th to 20th day): 0%
- Rats with reflex of active avoidance ([3]; day 1 of retention): 78%
- Rats with reflex of active avoidance ([3]; day 2 of learning): 0%
- Rats with reflex of active avoidance ([3]; day 2 of retention): 89%
- Rats with reflex of active avoidance ([3]; day 3 of learning): 55%
- Rats with reflex of active avoidance ([3]; day 4 of learning): 82%
- Percentage of surviving mice (outbred albino mice): 43.7%
- Increase of the weight (in %% to the initial one) ([4]; 0.1 mg/kg/day i.p. during 3 weeks): 12%
- Amount of the consumed chow ([4]; between 19th and 21st days, 0.1 mg/kg/day i.p.): 39.5 g/day/rat
- The amount of the Punishment Response [5]: 48.40 ± 12.39
- Aggression Threshold (mA) [6]: 0.92 ± 0.1 mA
